Assay results reported in EP4545550B1, “INSECT NEUROPEPTIDES” (Solasta Bio Limited, priority 2023, dated 2025).

System: Spodoptera frugiperda
Experiment: Lepidoptera artificial diet assay
Format: in vivo
Conditions: unformulated peptide, final concentration 1x10^-4 M in artificial diet, one L1 larva per cell, n=10, after 168 hours; compared to the insecticide DDT and negative control vehicle
Excerpt: Frontier Lepidoptera artificial diet was made up by preparing agar at 1% and then mixing it with artificial diet powder. Peptide solution was aliquoted in 10 cells and diet poured straight onto it. The final concentration of the peptide was 1x10^-4 M, and each peptide was aliquoted in 10 cells. Once the diet solidified and cooled down, one L1 larvae was infested in each cell. The trays were sealed with heat and let larva were allowed to develop for 168 hrs. Finally, pupation and mortality were scored for. Lepidoptera artificial diet assays were performed with SB-P-80, and compared to a negative control vehicle and the insecticide dichlorodiphenyltrichloroethane (DDT).

H-NADEDQQQSVDFTPRL-NH2 [SB-P-80, [Hy]-NADEDQQQSVDFTPRL-[NH2]]
activity (pupation and mortality scored): much higher activity
